Measurements as given in ChEMBL document CHEMBL1201862, “PubChem BioAssay data set” (2004).
Calls of active or inactive are those of the source.

Experiments:
Staphylococcus aureus = assay: Inhibitors of Bacterial Quorum Sensing Structure Activity Relationship (SAR) Analysis: Dose Response Assay. [Related pubchem assays: 700, 527 ]; type: functional, organism-based
Aspartyl aminopeptidase = target: T1, Aspartyl aminopeptidase (Plasmodium falciparum 3D7, UniProt Q8I2J3)
T1 sequence (Q8I2J3 whole entry): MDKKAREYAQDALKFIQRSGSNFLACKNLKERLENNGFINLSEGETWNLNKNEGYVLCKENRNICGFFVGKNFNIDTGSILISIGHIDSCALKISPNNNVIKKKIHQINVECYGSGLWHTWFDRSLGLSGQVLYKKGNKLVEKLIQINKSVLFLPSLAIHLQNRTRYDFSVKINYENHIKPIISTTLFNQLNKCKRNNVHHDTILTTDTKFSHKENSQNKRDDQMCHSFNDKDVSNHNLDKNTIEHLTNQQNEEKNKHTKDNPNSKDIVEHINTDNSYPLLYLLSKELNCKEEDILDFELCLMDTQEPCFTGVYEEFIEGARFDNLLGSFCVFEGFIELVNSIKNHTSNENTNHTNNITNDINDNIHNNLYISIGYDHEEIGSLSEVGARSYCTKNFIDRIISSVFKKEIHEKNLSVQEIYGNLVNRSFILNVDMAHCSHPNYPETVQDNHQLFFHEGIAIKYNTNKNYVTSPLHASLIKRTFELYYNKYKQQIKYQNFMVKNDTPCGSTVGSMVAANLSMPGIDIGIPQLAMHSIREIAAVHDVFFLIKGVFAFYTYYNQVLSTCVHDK

Procathepsin L = Procathepsin L (Homo sapiens, UniProt P07711)
Chain of Procathepsin L (P07711 whole entry): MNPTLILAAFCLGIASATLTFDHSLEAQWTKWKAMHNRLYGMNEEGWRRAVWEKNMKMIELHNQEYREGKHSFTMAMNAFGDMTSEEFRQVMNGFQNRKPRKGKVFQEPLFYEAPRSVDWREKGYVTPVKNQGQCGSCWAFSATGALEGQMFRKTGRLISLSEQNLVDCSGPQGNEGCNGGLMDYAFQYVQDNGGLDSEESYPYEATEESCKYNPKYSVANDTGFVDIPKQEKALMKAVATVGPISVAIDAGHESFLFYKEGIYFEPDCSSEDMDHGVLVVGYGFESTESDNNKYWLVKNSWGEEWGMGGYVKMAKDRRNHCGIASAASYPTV

[1] = A Cell Based Secondary Assay To Explore Cytotoxicity of Compounds that Sensitize Mycobacterium Tuberculosis to Beta-Lactam Antibiotics.; type: functional
[2] = CCR5-tropic HIV-1 fusion blockers – cell-based, CCR5-tropic Env, dose response (AID 2279); type: functional
Aminopeptidase N = target: T2, Aminopeptidase N (Plasmodium falciparum FcB1/Columbia, UniProt O96935); assay: malaria alanyl aminopeptidase activity blockers – biochemical, fluorogenic H-Leu-NHMec substrate, 1536-well (AID 1445); parameters: species or system Plasmodium falciparum 3D7, 3D7
T2 sequence (O96935 whole entry): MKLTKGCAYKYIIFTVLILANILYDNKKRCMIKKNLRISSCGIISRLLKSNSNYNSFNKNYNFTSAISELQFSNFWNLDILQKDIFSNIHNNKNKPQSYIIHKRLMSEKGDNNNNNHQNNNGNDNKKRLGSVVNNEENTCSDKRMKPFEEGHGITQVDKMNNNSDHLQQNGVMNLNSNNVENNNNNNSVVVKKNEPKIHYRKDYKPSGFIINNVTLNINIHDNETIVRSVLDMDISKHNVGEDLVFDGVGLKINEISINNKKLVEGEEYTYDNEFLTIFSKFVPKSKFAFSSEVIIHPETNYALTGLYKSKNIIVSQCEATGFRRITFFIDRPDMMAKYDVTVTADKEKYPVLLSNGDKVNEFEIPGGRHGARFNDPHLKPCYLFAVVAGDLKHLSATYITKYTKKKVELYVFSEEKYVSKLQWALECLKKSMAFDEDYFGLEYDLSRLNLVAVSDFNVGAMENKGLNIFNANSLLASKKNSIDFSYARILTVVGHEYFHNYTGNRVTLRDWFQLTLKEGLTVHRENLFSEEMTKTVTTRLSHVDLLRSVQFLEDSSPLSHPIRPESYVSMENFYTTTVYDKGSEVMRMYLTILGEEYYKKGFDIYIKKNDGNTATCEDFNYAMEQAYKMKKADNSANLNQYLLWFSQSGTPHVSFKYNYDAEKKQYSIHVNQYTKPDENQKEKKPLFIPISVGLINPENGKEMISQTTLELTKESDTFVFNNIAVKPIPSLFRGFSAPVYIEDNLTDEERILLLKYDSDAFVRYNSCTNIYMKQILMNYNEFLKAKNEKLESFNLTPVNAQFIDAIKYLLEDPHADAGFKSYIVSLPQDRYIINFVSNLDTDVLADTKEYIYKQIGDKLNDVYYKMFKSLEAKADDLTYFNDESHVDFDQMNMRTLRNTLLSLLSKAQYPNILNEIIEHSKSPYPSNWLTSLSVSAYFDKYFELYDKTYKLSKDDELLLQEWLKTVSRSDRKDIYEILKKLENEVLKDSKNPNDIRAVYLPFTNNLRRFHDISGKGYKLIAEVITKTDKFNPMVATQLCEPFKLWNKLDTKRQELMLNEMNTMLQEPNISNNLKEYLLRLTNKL

[3] = target: T3, Short transient receptor potential channel 4 (Mus musculus, UniProt Q9QUQ5); assay: block of DAMGO-driven TRPC4 calcium entry – cell-based, HEK293 TRPC4/mu-opioid, Fluo-4 calcium, dose response (AID 434942); type: functional;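 note: potency of inhibitors blocking the TRPC4 calcium response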
T3 sequence (Q9QUQ5 whole entry): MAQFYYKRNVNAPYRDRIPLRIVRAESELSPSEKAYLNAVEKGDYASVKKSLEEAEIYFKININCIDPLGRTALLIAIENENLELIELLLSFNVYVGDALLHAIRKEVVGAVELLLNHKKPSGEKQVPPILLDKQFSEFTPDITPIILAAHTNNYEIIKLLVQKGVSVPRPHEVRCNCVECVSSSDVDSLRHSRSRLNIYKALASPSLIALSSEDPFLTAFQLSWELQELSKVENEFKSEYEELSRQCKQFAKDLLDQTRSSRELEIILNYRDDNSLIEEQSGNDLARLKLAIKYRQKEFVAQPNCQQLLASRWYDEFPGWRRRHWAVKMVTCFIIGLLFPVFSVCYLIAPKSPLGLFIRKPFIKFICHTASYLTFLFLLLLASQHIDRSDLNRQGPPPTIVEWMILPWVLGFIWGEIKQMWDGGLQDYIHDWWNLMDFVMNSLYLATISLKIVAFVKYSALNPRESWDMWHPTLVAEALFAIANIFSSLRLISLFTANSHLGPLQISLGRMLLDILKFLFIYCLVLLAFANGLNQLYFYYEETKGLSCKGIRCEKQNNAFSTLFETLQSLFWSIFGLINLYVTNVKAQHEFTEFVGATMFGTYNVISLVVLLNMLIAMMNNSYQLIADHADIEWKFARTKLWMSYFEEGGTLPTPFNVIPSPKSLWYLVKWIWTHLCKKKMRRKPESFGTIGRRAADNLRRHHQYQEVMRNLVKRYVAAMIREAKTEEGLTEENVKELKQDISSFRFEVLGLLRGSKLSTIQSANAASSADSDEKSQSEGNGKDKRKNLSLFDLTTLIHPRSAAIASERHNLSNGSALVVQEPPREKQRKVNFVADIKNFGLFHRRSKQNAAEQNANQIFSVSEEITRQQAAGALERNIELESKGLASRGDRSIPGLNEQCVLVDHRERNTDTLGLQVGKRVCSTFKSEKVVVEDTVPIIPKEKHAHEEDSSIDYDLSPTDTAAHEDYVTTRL

NS3 = NS3 (Hepatitis C virus, UniProt A3EZJ3); assay: PubChem AID 2173; parameters: species or system Hepacivirus hominis
Chain of NS3 (A3EZJ3 whole entry): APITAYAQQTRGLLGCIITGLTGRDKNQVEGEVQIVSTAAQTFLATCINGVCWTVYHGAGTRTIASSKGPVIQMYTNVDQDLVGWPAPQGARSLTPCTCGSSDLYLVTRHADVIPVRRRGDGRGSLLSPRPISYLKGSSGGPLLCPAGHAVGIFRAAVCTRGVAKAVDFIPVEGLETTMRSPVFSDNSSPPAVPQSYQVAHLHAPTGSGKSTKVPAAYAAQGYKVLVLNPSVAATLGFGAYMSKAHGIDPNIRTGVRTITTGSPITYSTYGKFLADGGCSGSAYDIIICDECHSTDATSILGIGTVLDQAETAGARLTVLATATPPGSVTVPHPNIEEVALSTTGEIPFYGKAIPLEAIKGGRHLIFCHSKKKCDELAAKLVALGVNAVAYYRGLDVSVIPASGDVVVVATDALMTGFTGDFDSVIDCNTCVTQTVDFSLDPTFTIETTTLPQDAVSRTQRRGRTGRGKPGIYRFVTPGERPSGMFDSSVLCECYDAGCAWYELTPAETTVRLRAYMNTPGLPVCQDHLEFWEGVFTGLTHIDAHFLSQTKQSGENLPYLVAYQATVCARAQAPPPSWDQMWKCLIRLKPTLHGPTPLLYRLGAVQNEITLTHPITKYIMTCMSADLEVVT

fMet-Leu-Phe receptor = target: T4, fMet-Leu-Phe receptor (Homo sapiens, UniProt P21462); assay: formyl peptide receptor binders – dose response (AID 519); type: functional
T4 sequence (P21462 whole entry): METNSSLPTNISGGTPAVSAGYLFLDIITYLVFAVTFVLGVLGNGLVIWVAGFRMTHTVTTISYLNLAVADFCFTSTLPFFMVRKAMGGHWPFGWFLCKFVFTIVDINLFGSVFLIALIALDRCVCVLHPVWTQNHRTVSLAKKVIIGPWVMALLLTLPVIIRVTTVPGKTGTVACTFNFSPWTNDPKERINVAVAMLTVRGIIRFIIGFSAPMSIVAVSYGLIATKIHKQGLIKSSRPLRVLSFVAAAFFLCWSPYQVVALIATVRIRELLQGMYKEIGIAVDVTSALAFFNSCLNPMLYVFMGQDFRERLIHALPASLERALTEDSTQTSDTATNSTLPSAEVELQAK

HEK293 = assay: Fluorescence-based counterscreen for potentiators or agonists of NPY-Y2: cell-based high-throughput dose response assay to identify inhibitors of cyclic nucleotide gated ion channel (CNGC) activity. In this assay, the parental HEK293 cell line transfected with a cyclic-nucleotide gated ion channel (CNGC)-based cAMP sensor is used to measure inhibition of isoproterenol-induced CNGC activity by test compound.; type: functional; settings: Homo sapiens
[4] = target: T5, Neuropeptide Y receptor type 1 (Homo sapiens, UniProt P25929); assay: Fluorescence-based counterscreen for agonists of NPY-Y2: cell-based high-throughput dose response assay for agonists of NPY-Y1.; type: functional
T5 sequence (P25929 whole entry): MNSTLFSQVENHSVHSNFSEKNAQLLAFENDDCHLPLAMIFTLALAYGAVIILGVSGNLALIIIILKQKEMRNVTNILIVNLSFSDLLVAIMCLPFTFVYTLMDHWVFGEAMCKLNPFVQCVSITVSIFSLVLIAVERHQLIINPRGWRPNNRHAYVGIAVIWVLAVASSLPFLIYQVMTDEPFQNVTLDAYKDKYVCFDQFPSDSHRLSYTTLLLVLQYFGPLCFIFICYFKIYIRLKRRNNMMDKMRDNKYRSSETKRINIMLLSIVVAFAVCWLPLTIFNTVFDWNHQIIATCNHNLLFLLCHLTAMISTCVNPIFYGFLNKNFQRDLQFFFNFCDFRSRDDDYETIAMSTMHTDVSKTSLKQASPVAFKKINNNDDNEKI

[5] = target: T6, Neuropeptide Y receptor type 2 (Homo sapiens, UniProt P49146); assay: Fluorescence-based cell-based high-throughput dose response assay for agonists of NPY-Y2. [Related pubchem assays: 1703 (Screening assay (CNGC inhibitors).), 1359 (Screening assay (NPY-Y2 potentiators or agonists).), 1304 (Screening assay (NPY-Y1 potentiators or agonists).), 1710 (Screening assay (NPY-Y2 agonists).), 1791 (Summary AID.)]; type: functional
T6 sequence (P49146 whole entry): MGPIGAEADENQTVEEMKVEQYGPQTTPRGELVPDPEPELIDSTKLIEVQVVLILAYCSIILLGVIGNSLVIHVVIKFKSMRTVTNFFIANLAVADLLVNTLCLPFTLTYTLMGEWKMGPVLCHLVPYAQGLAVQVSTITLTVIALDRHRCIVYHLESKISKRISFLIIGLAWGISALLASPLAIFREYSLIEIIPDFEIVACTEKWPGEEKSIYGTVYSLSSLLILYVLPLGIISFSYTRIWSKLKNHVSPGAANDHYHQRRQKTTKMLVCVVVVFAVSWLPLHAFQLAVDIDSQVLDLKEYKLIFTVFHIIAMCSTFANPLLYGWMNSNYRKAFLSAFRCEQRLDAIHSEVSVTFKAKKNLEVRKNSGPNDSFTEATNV

[6] = target: T7, Luciferin 4-monooxygenase (Photinus pyralis, UniProt P08659); assay: inhibition of purified Photinus pyralis luciferase – biochemical, luminescence, dose response (AID 1891)
T7 sequence (P08659 whole entry): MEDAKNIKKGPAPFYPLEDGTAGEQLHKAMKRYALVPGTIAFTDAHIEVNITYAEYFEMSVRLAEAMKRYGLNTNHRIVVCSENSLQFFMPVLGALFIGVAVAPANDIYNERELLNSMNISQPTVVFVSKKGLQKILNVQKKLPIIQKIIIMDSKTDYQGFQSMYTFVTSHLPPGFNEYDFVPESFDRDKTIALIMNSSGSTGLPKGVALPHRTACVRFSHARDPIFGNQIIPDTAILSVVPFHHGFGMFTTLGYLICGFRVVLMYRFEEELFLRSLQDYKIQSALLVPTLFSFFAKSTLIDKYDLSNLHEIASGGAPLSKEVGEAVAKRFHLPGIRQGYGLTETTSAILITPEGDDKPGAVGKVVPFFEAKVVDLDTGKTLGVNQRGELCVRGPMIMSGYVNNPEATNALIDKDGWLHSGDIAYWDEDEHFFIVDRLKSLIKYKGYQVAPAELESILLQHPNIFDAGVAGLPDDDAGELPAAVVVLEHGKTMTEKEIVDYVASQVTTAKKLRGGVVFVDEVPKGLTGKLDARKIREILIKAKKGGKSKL

[7] = DRD fibroblast viability loss – cell-based, non-viral oncogenic, luminescence, dose response (AID 1934); type: functional; settings: Homo sapiens
BJ [8] = assay: BJ-TERT fibroblast viability loss – cell-based, RAS-independent, luminescence, dose response (AID 1933); type: functional; settings: Homo sapiens
BJ [9] = assay: cells; type: functional, cell-based; settings: Homo sapiens
[10] = Luminescence Cell-Based Dose Confirmation HTS to Identify Inhibitors of Platelet Dense Granule Release. [Related pubchem assays: 1663 (Primary HTS), 1678 (Summary of Project)]; type: functional
BJ [11] = assay: growth inhibition of engineered Ras-driven BJ cells – cell-based, alamar blue fluorescence, cherrypicked samples, dose response (AID 2631); type: functional; settings: Homo sapiens;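 note: confirmatory dose-response assay in RAS-dependent BJ fibroblasts engineered with TERT, LT and ST, with cytotoxicity read by fluorescence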
[12] = target: T7, Luciferin 4-monooxygenase; assay: Counter Screen for Luciferase-based Assay Positives. [Related pubchem assays: 620, 618, 411 ]
[13] = target: Cyclin-dependent kinase 5/CDK5 activator 1 (Homo sapiens, UniProt Q00535); assay: blockade of human CDK5 activity – biochemical, cherry-picked samples, set 2, dose response (AID 504545)
Chain of Cyclin-dependent kinase 5/CDK5 activator 1 (Q00535 whole entry): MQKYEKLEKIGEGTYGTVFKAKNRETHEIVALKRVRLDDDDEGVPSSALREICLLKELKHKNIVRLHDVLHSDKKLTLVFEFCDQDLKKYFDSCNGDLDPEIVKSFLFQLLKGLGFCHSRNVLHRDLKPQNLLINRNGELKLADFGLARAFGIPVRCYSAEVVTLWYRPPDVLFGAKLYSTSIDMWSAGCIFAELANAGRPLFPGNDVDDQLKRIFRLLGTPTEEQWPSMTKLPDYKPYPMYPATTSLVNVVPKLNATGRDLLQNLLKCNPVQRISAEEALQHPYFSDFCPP
Chain of Cyclin-dependent kinase 5/CDK5 activator 1 (Q15078 whole entry, further chain): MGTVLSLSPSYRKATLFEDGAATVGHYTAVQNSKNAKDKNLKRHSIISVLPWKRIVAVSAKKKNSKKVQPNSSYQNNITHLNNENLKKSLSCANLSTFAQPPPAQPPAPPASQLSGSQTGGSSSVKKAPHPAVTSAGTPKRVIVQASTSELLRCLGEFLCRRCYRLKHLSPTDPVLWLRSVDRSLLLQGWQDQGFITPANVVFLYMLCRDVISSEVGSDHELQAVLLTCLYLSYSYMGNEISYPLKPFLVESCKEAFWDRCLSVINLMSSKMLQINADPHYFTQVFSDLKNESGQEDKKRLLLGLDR

HT-1080 = assay: HT1080 cell viability loss – fluorescence readout (AID 620); type: functional, cell-based; settings: Homo sapiens
BJ [14] = assay: BJ-TERT-LT-ST fibroblast viability loss – cell-based, RAS-independent, luminescence, dose response (AID 1935); type: functional; settings: Homo sapiens;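 note: BJ fibroblasts immortalized with TERT plus LT and ST oncogenes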

## CCc1oc2ccccc2c1C(=O)c1ccc(O)cc1 [BENZARONE]
Staphylococcus aureus
  IC50: 1.29 µM (active)

## O=C(O)c1ccc(O)c(O)c1 [PROTOCATECHUIC ACID]
Aspartyl aminopeptidase
  IC50: 479 nM (active)
Procathepsin L
  IC50: > 59.6 µM (not active)

## O=C1/C(=C/c2ccncc2)CCc2ccccc21
[1]
  CC50: 35.4 µM (active)

## COc1cc(/C=C2\SC(=O)N(c3ccccc3Cl)C2=O)cc([N+](=O)[O-])c1O
[2]
  IC50: 42.5 µM (active)
Aminopeptidase N
  IC50: 65.8 µM (active)
[3]
  EC50: 1.06 µM (active)

## CCOc1ccc(C(=O)C2=C(O)C(=O)N(c3nc(C)c(C)s3)C2c2ccco2)cc1 (configuration not stated)
NS3
  IC50: 6.35 µM (active)
fMet-Leu-Phe receptor
  Ki: 57.7 µM (inactive)

## NC(=O)c1ccc2nc(NC(=O)c3ccc(N)cc3)sc2c1
HEK293
  EC50: > 35.4 µM (not active)
[4]
  EC50: > 35.4 µM (not active)
[5]
  EC50: > 35.4 µM (not active)

## COc1ccc(-c2cc3nc(C)cc(N)n3n2)cc1
[6]
  EC50: 513 nM (active)
[7]
  EC50: 6.14 µM (active)
BJ [8]
  EC50: 3.85 µM (inconclusive)
BJ [9]
  EC50: 4.45 µM (active)
[10]
  EC50: 621 nM (active)
BJ [11]
  EC50: > 133 µM (inactive)
[12]
  EC50: 2.85 µM (active)
[13]
  AC50: 17.5 µM (active)
HT-1080
  EC50: > 50 µM (not active)
BJ [14]
  EC50: 17.6 µM (active)
